Measurements published in publication PMC9410265, “Citrate Regulates the Saccharomyces cerevisiae Mitochondrial GDP/GTP Carrier (Ggc1p) by Triggering Unidirectional Transport of GTP” (Journal of Fungi, 2022).

Tests used:
[1] = molecular target: T1, Ggc1p (yeast mitochondrial GDP/GTP carrier) (Saccharomyces cerevisiae, UniProt P38988); assay: [[…]-3H]GTP uptake into effector-loaded proteoliposomes; format: biochemical; settings: activator of GTP uniport; 5 mM internal compound; 1 μM external [8-3H]GTP; pH 7.0, 25 °C
T1 construct: gene GGC1; E. coli BL21(DE3) inclusion bodies, sarkosyl-solubilized, reconstituted in liposomes; calculated 33,215 Da with initiator Met
T1 sequence (P38988 1-300): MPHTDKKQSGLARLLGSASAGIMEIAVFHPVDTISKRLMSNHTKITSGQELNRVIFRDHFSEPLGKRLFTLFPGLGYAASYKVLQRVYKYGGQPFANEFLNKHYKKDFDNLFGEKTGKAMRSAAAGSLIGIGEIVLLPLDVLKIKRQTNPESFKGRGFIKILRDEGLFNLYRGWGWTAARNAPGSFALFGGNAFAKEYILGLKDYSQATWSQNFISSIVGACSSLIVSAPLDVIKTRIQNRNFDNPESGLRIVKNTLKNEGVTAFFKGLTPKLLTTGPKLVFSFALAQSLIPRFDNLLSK

[2] = molecular target: T1, Ggc1p (yeast mitochondrial GDP/GTP carrier); assay: inhibition of [[…]-3H]GTP uptake into proteoliposomes; format: biochemical; settings: citrate-induced GTP uptake (5 mM internal citrate); 1 μM [8-3H]GTP; pH 7.0, 25 °C
[3] = molecular target: T2, Ggc1p (yeast mitochondrial GDP/GTP carrier) (Saccharomyces cerevisiae, UniProt P38988, R156A); assay: radiolabelled GTP uptake into citrate-loaded proteoliposomes, […] s; format: biochemical; settings: activator; 5 mM internal citrate; 1 μM external [8-3H]GTP; pH 7.0, 25 °C
T2 construct: gene GGC1; E. coli BL21(DE3) inclusion bodies, sarkosyl-solubilized, reconstituted in liposomes; calculated 33,215 Da with initiator Met
T2 sequence (P38988 1-300 R156A): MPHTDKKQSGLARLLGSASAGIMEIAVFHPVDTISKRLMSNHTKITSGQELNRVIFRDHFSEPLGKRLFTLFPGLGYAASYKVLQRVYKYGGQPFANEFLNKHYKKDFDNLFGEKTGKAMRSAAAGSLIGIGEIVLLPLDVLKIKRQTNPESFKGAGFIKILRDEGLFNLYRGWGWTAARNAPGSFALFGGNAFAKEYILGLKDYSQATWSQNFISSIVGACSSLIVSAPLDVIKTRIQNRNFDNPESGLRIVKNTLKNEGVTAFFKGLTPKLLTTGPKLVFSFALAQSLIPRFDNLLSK

[4] = molecular target: T3, Ggc1p (yeast mitochondrial GDP/GTP carrier) (Saccharomyces cerevisiae, UniProt P38988, K154A); assay: as above; format: biochemical; settings: activator; 5 mM internal citrate; 1 μM external [8-3H]GTP; pH 7.0, 25 °C
T3 construct: gene GGC1; E. coli BL21(DE3) inclusion bodies, sarkosyl-solubilized, reconstituted in liposomes; calculated 33,215 Da with initiator Met
T3 sequence (P38988 1-300 K154A): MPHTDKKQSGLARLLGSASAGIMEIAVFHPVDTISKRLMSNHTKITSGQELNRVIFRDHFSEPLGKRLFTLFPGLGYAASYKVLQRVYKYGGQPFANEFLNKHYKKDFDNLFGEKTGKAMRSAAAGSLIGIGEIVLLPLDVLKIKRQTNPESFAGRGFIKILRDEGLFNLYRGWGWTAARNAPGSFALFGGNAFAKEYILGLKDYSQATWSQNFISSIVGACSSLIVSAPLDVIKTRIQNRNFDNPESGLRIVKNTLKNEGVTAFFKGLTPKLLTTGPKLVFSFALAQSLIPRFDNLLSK

[5] = molecular target: T1, Ggc1p (yeast mitochondrial GDP/GTP carrier); assay: radiolabelled GTP uptake into proteoliposomes, activation by internal citrate; format: biochemical; settings: activator (trans-activation of GTP uniport), not transported; allosteric, site distinct from GTP site; 10 μM external [8-3H]GTP; pH 7.0, 25 °C
[6] = molecular target: T1, Ggc1p (yeast mitochondrial GDP/GTP carrier); assay: inhibition of [[…]-3H]GTP uptake into proteoliposomes; format: biochemical; settings: GTP/GTP exchange (5 mM internal GTP) and citrate-induced uptake (5 mM internal citrate); 1 μM [8-3H]GTP; pH 7.0, 25 °C
[7] = substrate: Nc1nc2c(ncn2[C@@H]2O[C@H](COP(=O)(O)OP(=O)(O)OP(=O)(O)O)[C@@H](O)[C@H]2O)c(=O)[nH]1; assay: purified protein; format: biochemical, Saccharomyces cerevisiae; settings: citrate-induced GTP uniport, internal citrate 0.15-0.6 mM, external 0.25-1 μM [8-3H]GTP, pH 7.0, 25 °C, labelled compound

Molecule: O=C(O)C[C@H](C(=O)O)[C@@H](O)C(=O)O [isocitrate]
- [8-3H]GTP uptake into effector-loaded proteoliposomes [1]: GTP uptake was also observed with proteoliposomes containing citrate, isocitrate, cis-aconitate

Molecule: CO[C@H](C/C=C\C=C\CC/C=C/C[C@H](C)/C=C/C(=C\C(=O)O)CC(=O)O)/C(C)=C\C=C(/C)C(=O)O [bongkrekic acid]
- % inhibition at 0.1 mM [2]: CIGU was partially inhibited by p-hydroxymercuribenzoate, carboxyatractyloside and bongkrekate

Molecule: O=C(O)CC(O)(CC(=O)O)C(=O)O [citrate]
- % of wild-type uptake [3]: CIGU in K154A and R156A mutants were markedly decreased with respect to that of wild-type
- % of wild-type uptake [4]: CIGU in K154A and R156A mutants were markedly decreased with respect to that of wild-type
- EC50 [5]: 510 µM

Molecule: Cc1cc(C2(c3cc(C)c(O)c(Br)c3)OS(=O)(=O)c3ccccc32)cc(Br)c1O [bromocresol purple]
- % inhibition at 0.3 mM [6]: tannic acid and bromocresol purple (inhibitors of the mitochondrial glutamate carriers)

Molecule: O=C(O)/C=C(/CC(=O)O)C(=O)O [cis-aconitate]
- [8-3H]GTP uptake into effector-loaded proteoliposomes [1]: GTP uptake was also observed with proteoliposomes containing citrate, isocitrate, cis-aconitate

B1: Ggc1p (yeast mitochondrial GDP/GTP carrier) (Saccharomyces cerevisiae S288C) (protein)
chain: MPHTDKKQSGLARLLGSASAGIMEIAVFHPVDTISKRLMSNHTKITSGQELNRVIFRDHFSEPLGKRLFTLFPGLGYAASYKVLQRVYKYGGQPFANEFLNKHYKKDFDNLFGEKTGKAMRSAAAGSLIGIGEIVLLPLDVLKIKRQTNPESFKGRGFIKILRDEGLFNLYRGWGWTAARNAPGSFALFGGNAFAKEYILGLKDYSQATWSQNFISSIVGACSSLIVSAPLDVIKTRIQNRNFDNPESGLRIVKNTLKNEGVTAFFKGLTPKLLTTGPKLVFSFALAQSLIPRFDNLLSK
notes: E. coli BL21(DE3) inclusion bodies, sarkosyl-solubilized, reconstituted in liposomes; calculated 33,215 Da with initiator Met
- Km [7]: 0.72 µM
